Assay results as given in patent publication US10918648B2, “Estrogen receptor modulator combinations” (The Regents of the University of California, priority 2016, dated 2021).

Legend:
[1] = tested on: A549 NSCLC cells; experiment: NSCLC cell proliferation in vitro (MTS assay); format: cell-based, human
[2] = tested on: H1975 NSCLC cells; experiment: NSCLC cell proliferation in vitro (MTS assay); format: cell-based, human; conditions: Homo sapiens, NCI-H1975, SERD alone, 72 hours, estrogen-depleted phenol red-free medium with 5% DCC-FBS, read-out: IC50 for inhibition of NSCLC cell proliferation, H1975
Procedure: (§1) Cell culture: Human breast and non-small cell lung cancer cells (MCF7, ZR75-1, MDAMB231, A549, H23, H1975, […]) were from ATCC. MCF7-HER2 were a kind gift of Dr. Dennis Slamon (23). Cell lines were routinely maintained in RPMI 1640 or DMEM medium with 10% fetal bovine serum (FBS) (Sigma-Aldrich) and 1% Antibiotic-Antimycotic solution 100× (Mediatech, Herndon, Va.). When indicated, for estrogen-free conditions, media was changed 48 h before experiments to phenol-red free RPMI 1640/DMEM with 1% dextran-coated, charcoal-treated (DCC)-FBS (24,25). Otherwise experiments were performed in phenol-red free RPMI 1640/DMEM medium with 5% DCC-FBS.
(§2) Cell proliferation assays: breast and lung tumor cells (between […]) were plated in 96 well plates using their respective medium with 10% FBS. For experiments using estradiol-17β, cells were rinsed with PBS and incubated with phenol redfree medium with 1% DCC-FBS for 48 hours as described before (24,25). Cells were then treated with different concentrations of SERDs ranging between 0.0001-100 μM. […] Cell counts and viability tests (Trypan blue) were done every 24 hr for 3 days. After 72 hr, proliferation was assessed with the MTS Assay CELLTITER 96® Aqueous Cell Proliferation Assay (Promega) or the Cell Proliferation ELISA, BrdU colorimetric assay (Roche). For the MTS, the absorbance of the formazan product was measured at 490 nanometer using the iMARK microplate reader from BIORAD. The BrdU ELISA assay is based on detection of BrdU incorporated into the genomic DNA of proliferating cells and an anti-BrdU antibody, the reaction product was quantified by measuring the absorbance at 370 nanometers using iMARK microplate reader from BIORAD. Cell numbers were also assessed initially by cell counts to confirm MTS/BrdU data. Experiments were done at least three times to confirm data.

[3] = tested on: H2122 NSCLC cells; experiment: NSCLC cell proliferation in vitro (MTS assay); format: cell-based, human; conditions: Homo sapiens, NCI-H2122, SERD alone, 72 hours, estrogen-depleted phenol red-free medium with 5% DCC-FBS, read-out: IC50 for inhibition of NSCLC cell proliferation, H2122
Procedure: as §1, §2

[4] = tested on: MCF-7 breast cancer cells; experiment: MCF-7 breast cancer cell proliferation (BrdU ELISA) in presence of estradiol-17β; format: cell-based, human; conditions: Homo sapiens, MCF7; 72 hrs in the presence of 1 nM estradiol-17β, BrdU ELISA; read-out: IC50 for inhibition of cell proliferation, MCF-7
Procedure: In experiments to assess potential proliferative effects of novel estrogen receptor ligands, human breast cancer cells were grown in phenol red-free, estrogen-free media with 1% dextran-coated charcoal-treated (DCC)-fetal bovine serum (FBS) for 48 hrs (15,44), then treated with either 1 μM or 50 μM doses of estrogen receptor antagonists in the presence of 1 nM estradiol-17β. Cell counts and viability tests (Trypan blue) were done every 24 hr for 3 days. After 72 hr, proliferation was assessed using the BrdU Cell proliferation ELISA (Roche). Cell numbers were also assessed initially by cell counts to confirm ELISA data. Each antiestrogen was tested at least in three different experiments.
In order to assess the antitumor action of novel estrogen receptor antagonists, we cultured human MCF-7 breast cancer cells with known expression of ERα. Cells were grown in 1% DCC-FBS for 48 hr and then treated with vehicle control or either 1 μM or 50 μM concentrations of antiestrogens JD 101-160 or the pure antiestrogen fulvestrant (FAS), all in the presence of 1 nM estradiol-170. […] Shown in FIG. 2A are results from MCF-7 cells grown in 1% DCC-FBS for 48 hr and then treated with vehicle control, 1 nM estradiol-170 and either 1 μM or 50 μM concentrations of antiestrogens JD 101-160 or the known pure antiestrogen fulvestrant (FAS) in the presence of 1 nM estradiol-170. Cell proliferation is expressed as percentage of that determined in the 1 nM estradiol-170-treated control group.
as §2

[5] = tested on: MAPK: ERK-1 (p44) and ERK-2 (p42); experiment: Estrogen-induced MAPK phosphorylation, Western blot in MCF-7 cells; format: cell-based, human; conditions: MCF-7 parent cells, 1 nM estradiol (E2); antagonists pre-incubated at 1000 nM; FIG. 7A
Procedure: ERD inhibition of phosphorylation of MAPK, at both extracellular signal-regulated kinases ERK-1 (p44) and ERK-2 (p42) and downstream effects. […] Thus, we measured estrogen-induced phosphorylation of MAPK by established methods (9,15,16). Briefly, MCF-7 parental cells were estrogen deprived for 48 hrs, then treated with 1 nM estradiol-1713 in the presence of new compounds (10 nM-10 μM) to be tested for antagonist activity. After treatments, cell lysates were separated by SDS-PAGE followed by Western blot using a polyclonal antibody directed to phospho-p44/p42 MAP kinase (Thr202/Tyr204) (Cell Signaling). Immunodetection with antibody against total p44/p42 (Cell Signaling) was done as a control for gel loading. […] ERD S15 was as effective as fulvestrant in inhibiting the rapid estrogen-induced MAPK phosphorylation in breast tumor cells in vitro. […] E2 but not vehicle (CN) induced rapid phosphorylation of ERK-1 (p44) and ERK-2 (p42). This activation was prevented when cells were pre-incubated with 1000 nM ICI 182,780 (ICI; Faslodex) or 1000 nM compound S15 in the presence of estradiol (E2).

[6] = tested on: MCF-7 parental cells; conditions: MCF-7 parental xenografts in nude mice; cited from earlier work
[7] = tested on: MCF-7/HER-2 cells; conditions: MCF-7 cells with HER2-overexpression, xenografts in nude mice; cited from earlier work
[8] = tested on: Rb serine-780; experiment: Rb serine-780 phosphorylation, Western blot in A549 cells; format: cell-based, human; conditions: 24 h, 1% DCC-FBS, 1 nM E2, 1 nM androstenedione, 10 nM testosterone, 10 μM letrozole, 100 nM palbociclib, FIG. 4C
Procedure: FIG. 4C. […] Cells were treated 24 h in phenol red-free RPMI with 1% DCC-FBS with vehicle control (CON), 1 nM estradiol-17β (E2), 1 nM androstenedione (And), 10 nM testosterone (Tes), 10 μM letrozole (AI), 100 nM palbociclib (Plbo) or both Plbo+AI. After 24 hr, cell lysates subjected to Western blot with antibody to phosphoserine-780 Rb or total Rb (Cell Signaling) (20). GAPDH is used as loading control.
To investigate the antitumor efficacy of CDK 4/6 inhibitor palbociclib in NSCLC cells, we assessed the effects of palbociclib alone and in combination with the hormonal therapeutic letrozole (see FIGS. 4B and 5B). The potential mechanism of action of palbociclib and letrozole in NSCLC cells was investigated by assay of the effects of these agents alone and combined on phosphorylation of Rb serine-780

[9] = tested on: cyclin D1; experiment: Cyclin D1 expression, Western immunoblot in A549 NSCLC cells; format: cell-based, human; conditions: 24 h, 1% DCC-FBS, letrozole 10 μM, FIG. 5B
Procedure: FIG. 5B. […] Cells were treated 24 h in phenol red-free RPMI with 1% DCC-FBS. Control (Con), estradiol-17β (E2; 1 nM), androstenedione (And; 1 nM), testosterone (Tst; 10 nM), letrozole (AI; 10 μM) and palbociclib (Plbo; 1 μM) were used in this experiment. GADPH is used as a loading control (20).

Row | IC50 ([1]; Homo sapiens, A549, SERD alone, 72 hours, estrogen-depleted phenol red-free medium with 5% DCC-FBS, MTS assay, read-out: IC50 for inhibition of NSCLC cell proliferation, A549) [nM] | IC50 [2] [nM] | IC50 [3] [nM] | IC50 [4] [nM] | Structure (SMILES) | phosphorylation of MAPK (ERK-1 p44 and ERK-2 p42) [5] | growth of parent tumors (xenografts) [6] | sensitivity of MCF-7/HER-2 xenografts [7] | inhibition of NSCLC cell proliferation ([1]; A549, 72 hrs, single agents and palbociclib (10 or 100 nM)/letrozole (10 μM), FIG. 6B) | phosphorylation of Rb serine-780 [8] | cyclin D1 expression [9]
1 | 4160 | 1880 | 1290 | 1110 | C[C@]12CC[C@@H]3c4ccc(O)cc4C[C@@H](CCCCCCCCC[S+]([O-])CCCC(F)(F)C(F)(F)F)[C@H]3[C@@H]1CC[C@@H]2O (stereo partly shown) [FULVEST, fulvestrant, reference compound] | prevented | suppressed | partially sensitive |  |  | 
2 |  |  |  |  | N#Cc1ccc(C(c2ccc(C#N)cc2)n2cncn2)cc1 [letrozole] |  |  |  | dose-dependent inhibition | block | reduces cyclin D1 expression
